# Experimental data: PMC8942850, “Boron clusters as broadband membrane carriers” (Nature, 2022)
# Tests used:
# HeLa cells [1] = test: Cytosolic TAMRA-R8 concentration (digitonin fractionation, fluorescence); type: cell-based; conditions: Extended Data Fig.5d; for concentration_uM, mean: mean of 4 experiments
# Method: Cytosolic extracts were obtained according to a previously described protocol[55] by incubation with digitonin, a steroidal saponin that preferentially permeabilizes cholesterol-rich membranes, such as the plasma membrane, with minor effects on intracellular membranes. […] Cells were incubated on ice with 600 µl of 35 µg ml^−1 digitonin in PBS Ca/Mg for 10 min, the supernatant with the cytosolic fraction collected and cells washed with 200 µl of PBS Ca/Mg, combining this supernatant with the previous extract. The non-cytosolic fraction was collected by incubation of the cells with 800 µl of 1% Triton X-100 in PBS. […] For the complementary HPLC analysis, phosphate buffer was replaced by TBS (20 mM Tris–HCl, pH 7.2, 150 mM NaCl, 0.5 mM CaCl2, 0.5 mM MgCl2) and digitonin extraction was performed as indicated above. An aliquot of these extracts was used for β-hexosaminidase activity determination. Cytosolic extracts were lyophilized and resuspended in 1:10 volumes of H2O:CH3CN 1:1 with 1% TFA, and analysed by HPLC (RP-HPLC Agilent Luna 5U C18 100 Å, H2O (0.1% TFA)/CH3CN (0.1% TFA) 100:0 (0→5 min); 100:0→5:95 (5→20 min)) by monitoring the 555-nm absorbance of the TAMRA chromophore.
# The quality of fractionation was assessed by lysosomal β-hexosaminidase activity, using 4-nitrophenyl 2-acetamido-2-deoxy-β-D-glucopyranoside as substrate. Briefly, 20 µl of extract was incubated with 80 µl of 7.5 mM substrate in 100 mM citrate buffer, pH 4.7, for 40 min at 37 °C, and the reaction was stopped by addition of 200 µl of 0.2 M Tris solution. Absorbance at 405 nm was measured in a plate reader. As blank, wells containing only the substrate were used. […]
# HeLa cells [2] = test: MTT viability with B12Br12^2− or R8; design: dose or concentration left out as unconfirmed; conditions: 3 h in HKR + 24 h medium, mean of five measurements
# Method: (§1) The incubation mixtures were replaced with DMEM + 10% FBS + 0.5 mg ml^–1 MTT. For the viability assays in the presence of B12Br12^2− or R8, HeLa, GT1-7, ARPE-19 and A549 cells were seeded the day before in 96-well plates at 6,000 cells per well. Cells were incubated with B12Br12^2− or R8 dissolved in HKR buffer for 3 h and, thereafter, incubated for 24 h with complete medium before incubating with complete medium and 0.5 mg ml^−1 MTT. For viability studies in the presence of MMAF, HeLa cells were incubated with MMAF and B12Br12^2− diluted in DMEM (without serum or antibiotics) for 3 h. Cells were washed with 0.1 mg ml^−1 heparin and further incubated for 21 h in complete medium and 2 h in complete medium containing 0.5 mg ml^−1 MTT. For all types of assays, after 2 h of incubation, the medium was carefully removed, and formazan crystals dissolved by addition of DMSO. The absorbance at 570 nm was measured with a plate reader (Tecan Infinite F200Pro) and the data normalized to the value of untreated cells (100% viability). Data were analysed with R (v. 4.0.3)[54].
# (§2) Cells were incubated with 7 µM phalloidin-TRITC (red) in the absence (left) and presence of 50 µM ^AcR8 (middle) or 50 µM of B12Br12^2− cluster (right) in HKR buffer for 3 h, subsequently stained with Hoechst (blue), washed with DMEM without phenol red, and imaged by confocal fluorescence microscopy; bright-field images in insets. Micrographs from each cell line were processed independently, experiments were performed twice. e, MTT viability assay of the corresponding cell lines (HeLa, GT1-7, ARPE-19 and A549, from left to right) at different concentrations (0, 25, 75, 250, and 500 µM) of B12Br12^2− (black) or ^AcR8 (red); data are mean ± s.d. of five measurements. f, Confocal images of HeLa cells after incubation with 500 nM phalloidin-TRITC and different concentrations B12Br12^2−; the images correspond to those of Fig. 4 in the main text, but are shown with increased brightness to facilitate observation of the actin filaments. Representative images of two biological replicates. All scale bars are […], except for panel f (50 µm). Source data
# [3] = tested on: adenocarcinoma human alveolar basal epithelial cells A549; test: MTT viability with B12Br12^2− or R8; design: dose or concentration left out as unconfirmed; conditions: 3 h in HKR + 24 h medium, mean of five measurements
# Method: as §1, §2
substance,measurement,setting,value
B12Br12^2−,concentration_uM,"HeLa cells [1]; 0 uM B12Br12 (no carrier), experiment 1",0.2863 µM
same,concentration_uM,"HeLa cells [1]; 0 uM B12Br12 (no carrier), experiment 2",0.345 µM
same,concentration_uM,"HeLa cells [1]; 0 uM B12Br12 (no carrier), experiment 3",0.2743 µM
same,concentration_uM,"HeLa cells [1]; 0 uM B12Br12 (no carrier), experiment 4",0.3423 µM
same,"concentration_uM, mean",HeLa cells [1]; 0 uM B12Br12 (no carrier),0.312 µM
same,concentration_uM,"HeLa cells [1]; 10 uM B12Br12, experiment 1",1.393 µM
same,concentration_uM,"HeLa cells [1]; 10 uM B12Br12, experiment 2",1.647 µM
same,concentration_uM,"HeLa cells [1]; 10 uM B12Br12, experiment 3",1.247 µM
same,concentration_uM,"HeLa cells [1]; 10 uM B12Br12, experiment 4",1.117 µM
same,"concentration_uM, mean",HeLa cells [1]; 10 uM B12Br12,1.351 µM
same,mean_viability,HeLa cells [2]; 25 as printed,104.374%
same,mean_viability,HeLa cells [2]; 75 as printed,100.045%
same,mean_viability,[3]; 25 as printed,106.289%
same,mean_viability,[3]; 75 as printed,109.955%
